“Also recorded” adds a separate entry of the source.
Key:
[1] = system: P2RX4, P2RX7, P2RY1, P2RY2, P2RY4; assay: Purinergic receptor expression in nTregs (real-time PCR, immunofluorescence); assay type: cell-based, mouse; settings: 24 hrs
[2] = system: Fully MHC-mismatched tail skin allografts in mice; assay: Skin transplantation model; assay type: in vivo, mouse
From the text: More importantly, in transplantation nTregs promote allograft survival while Th17 cells enhance allograft rejection^44-45. Thus, to study, in vivo, the impact of NAD^+ on nTregs and Th17 cells a transplant mouse model was used. Fully MHC-mismatched C57BL/6 (H2^b) tail skin allografts were transplanted onto DBA/2 (H2^d) mice that received daily intraperitoneally a solution containing NAD^+ or a placebo solution (PBS) and graft survival was monitored. […] Therefore, NAD^+ treatment was expected to promote allograft rejection. […] Recipient mice were evaluated by day 8 and the frequency of nTregs CD4^+CD25^+Foxp3^+ and CD4^+IL17-A^+ cells was assessed (FIG. 14B). […] Next, mechanisms by which NAD^+ could promote nTreg conversion into Th17 cells and allograft survival at the same time, e.g., two paradoxes, were assessed. Strikingly, when compared to the control group, more than 60% of CD4^+ T cells of NAD^+ treated mice were IL-10^+ producing cells (FIG. 14B). It is known that IL-10 is a robust immunosuppressive cytokine^46. Therefore, it was tested whether the allograft survival observed in recipient mice treated with NAD^| was the results of a systemic increase of IL-10 production. Thus, WT and IL-10^−/− mice (on a C57BL6/ background) received a BDA skin transplant and were treated with NAD^|.
Full-thickness tail skin grafts (˜1 cm^2) were procured from C57BL/6 mice and engrafted onto the dorsolateral thoracic wall of DBA/2 recipient mice using interrupted 5-0 Vicryl sutures. NAD^+ (100 μl of a solution containing 10 mg in PBS), or PBS (100 μl) were injected intraperitoneally and grafts were covered with gauze and adhesive bandage for 5 days. Graft survival was then monitored daily and rejection was defined as graft necrosis of 100%. Two investigators blinded for the particular experimental groups assessed graft survival independently. Eight days after transplantation, single-cell leukocyte suspensions were obtained from spleens procured from recipient mice to perform re-stimulation (with PMA and Ionomycin for 2hrs) and staining for surface and intracellular antigens as described above.

NOD/Schilt mice = assay: Type 1 diabetes mouse model; assay type: in vivo
Description: NOD/Schilt mice were used to assess the role of NAD+ as a treatment for Type I Diabetes (T1D). By the 20th week, […] started consistently rising above the normal average. By week 25, […] were detected over 600 mg/dL. These levels were consistently high for 1 week before treatment with NAD+ was initiated. Treatment with NAD+ was given daily at 40 mg per mouse.
It is important to note that most T1D studies begin treating diabetic animals when glucose levels reach 250 mg/dl or greater for 2 consecutive days.

[3] = system: tryptophan hydroxylase-1 (Tph-1) and carboxypeptidase A3 (CA3); assay: Gene expression in CD4+ T cells (microarray, qPCR); assay type: cell-based, mouse
From the text: After successive washes, RNA was eluted.

EAE in C57BL/6 mice = assay: EAE mouse model (behavioral score, splenic CD4+ T cells, spinal cord histology); assay type: in vivo
Description: Thus, the inventors used the experimental autoimmune encephalomyelitis (EAE) mouse model to study the impact of NAD^+, in vivo, on IL-10, Th1, Th17 and Treg cells in vivo. […] Next, the mechanisms by which NAD^+ protected from EAE in vivo were investigated, in particular its impact on IL-10 cytokine, Th1, Th17 and Tregs. Spleens were isolated from mice treated with NAD^+ or with a placebo solution 15 days after MOG immunization and CD4^+ T cell cytokine expression profile was analyzed by flow cytometry.
To assess the clinical efficacy of NAD^+ as a potential robust therapeutic, a group of mice that developed severe clinical symptoms of EAE (e.g., bilateral hindlimb paresis) was subjected to a daily NAD^+ treatment 15 days after MOG immunization.
Thus, the mechanism of how NAD^− treatment was able to reverse EAE progression was investigated. A previous study reported that nicotinamide (Nam) an NAD biosynthesis precursor can protect from myelin degradation and axon degeneration^43. The results described herein indicate that NAD^+ administered after the disease onset was able to reverse the progression of EAE. Thus, the inventors assessed whether NAD^+ was able to reverse the clinical symptoms of EAE by protecting axon from degeneration and whether NAD^+ had the capacity to promote myelin regeneration. […] Moreover, demyelination and axon loss were assessed with antibodies to myelin basic protein (MBP/SMI-9) and neurofilament (NF200), respectively, in all three groups (FIG. 5A-5F). Consistent with H&E and luxol blue findings, a significant reduction in both MBP staining depicting demyelination and axon loss evidenced by reduced NF 200 staining was very prominent in the group of mice treated with a placebo solution (FIG. 5A and 5D) when compared to the daily NAD^| treated group (FIG. 5B and 5E) and with mice treated with NAD+ after develop hindlimb paralysis (15 days after MOG immunization) (FIG. 5C and 5F).
EAE was induced in 10-week-old C57BL/6 mice using Hooke Labs EAE induction kit (EK-2110) according to manufacturer's instructions. […] For NAD^+ treatment mice received a daily intraperitoneal injection (60 mg in 100 μl in PBS) or a placebo solution (100 μl of PBS) at the same day than MOG immunization. Mice were sacrificed at day 18 and single cell suspension was obtained from spleens for flow cytometry analysis. To test whether NAD^+ was able to reverse the development of EAE, another group of mice was treated daily (for a period of 10 days) with NAD^+ (60 mg/mouse) or a placebo solution 15 days after MOG immunization when mice were scored 3 with a bilateral hindlimb paresis. EAE disease progression was monitored. For Tph-1 or CA3 inhibition, mice received daily intraperitoneal injections (simultaneous to NAD^−) of p-Chlorophenylalanine (1 ml of a 10 mM solution stock, catalog number 0938, Tocris Bioscience) or N-[[[(1S)-1-Carboxy-3-methylbutyl]amino]carbonyl]-L-glutamic acid (100 μl of a 100 mM solution stock, ZJ 43 catalog number 2675,Tocris Bioscience), respectively.

[4] = nTregs, anti-CD3/CD28, with vs without NAD+
[5] = recipient spleen, day 8, NAD+ vs placebo
[6] = MOG-immunized mice, daily i.p. NAD+ from day of immunization
[7] = daily NAD+ and NAD+ from 15 days after MOG immunization
[8] = spleen, EAE mice, daily NAD+ vs placebo, flow cytometry

## NC(=O)c1ccc[n+]([C@@H]2O[C@H](COP(=O)([O-])OP(=O)(O)OC[C@H]3O[C@@H](n4cnc5c(N)ncnc54)[C@H](O)[C@@H]3O)[C@@H](O)[C@H]2O)c1 [NAD+, nicotinamide adenine dinucleotide]
[1]; immunofluorescence, 50 μM NAD
  expression of P2RX4 receptor on the cell surface: increased
  expression of P2RX7 receptor on the cell surface: increased
[1]; [4]
  P2RX4 mRNA expression level: > 4 fold
  P2RX7 mRNA expression level: > 15 fold
[1]; nTregs, with vs without NAD+
  P2RY1 mRNA level: remained unchanged
  P2RY2 mRNA level: remained unchanged
  P2RY4 mRNA level: remained unchanged
[2]; 13 days after transplantation, daily NAD+
  visual sign of rejection: no visual sign of rejection
[2]; C57BL/6 skin onto DBA/2 mice, daily i.p. NAD+
  allografts survived more than 18 days: 66%
[2]; C57BL/6 skin onto DBA/2 mice, daily i.p. NAD+ vs control group
  skin allograft survival: dramatic allograft survival
[2]; DBA skin onto IL-10−/− mice (C57BL/6 background), NAD+ treatment
  skin allograft survival in IL-10−/− mice: abolished the allograft survival
[2]; [5]
  frequencies of CD4+IL-17A+ cells: increased frequencies
  frequency of CD4+CD25+Foxp3+ nTregs: reduced frequency
NOD/Schilt mice; diabetic mice (higher than 600 mg/dl), NAD+ daily 40 mg per mouse
  blood glucose levels: much lower levels; also recorded: marked decrease
NOD/Schilt mice; diabetic mice (over 600 mg/dL), NAD+ daily 40 mg per mouse, 5 days after treatment
  insulin levels: started to decline at a significant rate
NOD/Schilt mice; within 10 days of NAD+ treatment
  activity of lethargic type 1 diabetic mice: became much more active and aggressive
[3]; during CD4+ T helper cell differentiation
  carboxypeptidase A3 (CA3) (microarray): activate
[3]; with vs without NAD+
  Tph-1 expression (qPCR): up-regulation
EAE in C57BL/6 mice; EAE mice treated daily with NAD+
  spinal cord inflammatory infiltrate, myelin loss and axonal injury (LFB and H&E stainings): remained free of inflammatory infiltrate, myelin loss, and axonal injury
EAE in C57BL/6 mice; [6]
  EAE (behavioral score): protected against EAE
  paralysis: no sign of paralysis
EAE in C57BL/6 mice; NAD+ started 15 days after MOG immunization (after hindlimb paralysis)
  spinal cord inflammatory infiltrate, myelin loss and axonal injury (LFB and H&E stainings): did not show inflammatory infiltrate, myelin loss, and axonal injury
EAE in C57BL/6 mice; [7]
  myelination positive area (MBP), spinal cord: significant protection and recovery
  neurofilament positive area (NF200), spinal cord: significant protection and recovery
EAE in C57BL/6 mice; daily NAD+ started 15 days after MOG immunization
  time of treatment until bilateral hindlimb paresis abolished: ≤ 10 days
EAE in C57BL/6 mice; daily NAD+ started 15 days after MOG immunization (bilateral hindlimb paresis), vs placebo
  progression of EAE: reversed the progression of the disease
EAE in C57BL/6 mice; daily NAD+, after 25 days
  development of EAE: did not develop EAE
EAE in C57BL/6 mice; spleen, EAE mice, daily NAD+ vs control group, flow cytometry
  systemic IL-10 cytokine production by CD4+IFNγ+ cells: dramatically enhanced
EAE in C57BL/6 mice; [8]
  IFNγ production by CD4+ T cells: promoted
  Th17 response: promoted a robust Th17 response
  number of CD4+CD25+Foxp3+ cells: reduced
